In US6810371B1 (priority 1906, dated 2004):
Like-named read-outs stand apart in the source and are kept apart here.

Columns and labels:
[1] = Estimated exposure amount of inhabitants (inhalation, percutaneous, oral); conditions: for estimated PERCUTANEOUS exposure amount: contact area 4.0 m^2/day; for estimated exposure amount in INHALATION (WINDOW CLOSED): exposure time 24 h/day; for estimated exposure amount in INHALATION (WINDOW OPEN): window opened for 5 minutes after spraying; for estimated ORAL exposure amount: hand surface area ratio about 5 %, oral transference ratio 100 %
Excerpt: estimated exposure amount in inhalation [mg/kg/day]=mean concentration in indoor air [mg/m^3]×amount of respiration [m^3/kg/min]×exposure time [min/day]
estimated percutaneous exposure amount [mg/kg/day]=(mean residual amount [mg/m^2]×skin attachment ratio [%]×contact area [m^2/day])/body weight [kg]
estimated oral exposure amount [mg/kg/day]=estimated percutaneous exposure amount [mg/kg/day]×hand surface area ratio [%]×oral transference ratio [%]
Here, the mean indoor respiration amount of Japanese is 0.220 [L/min/kg] for an adult, and 0.235 [L/min/kg] for an infant. Also, the exposure time was presumed to be 24 [h/day], taking account of the worst case where inhabitants are confined in the room for 24 hours after spraying.
In the table, “window closed” refers to the case where the window is closed throughout the exposure time, whereas “window open” refers to the case where spraying was effected in the state with the closed window and then the window was opened for 5 minutes (Example 3).
Here, it was assumed that the contact area for an infant and an adult was 4.0 [m^2/day], the body weight of the infant was 10.2 [kg], and the body weight of the adult was 50 [kg]. […] These values were used for calculating the estimated percutaneous exposure amount.
Here, while the hand surface area ratio was assumed to be about 5[%], and the oral transference ratio was presumed to be the worst case of 100[%], only the estimated oral exposure amount of the infant was calculated.

[2] = tested on: rat; test: Non-influential amount of a rat (inhalation, percutaneous, oral toxicity tests); format: in vivo; conditions: for non-influential in-air concentration: 4-week inhalation test (d-phenothrin 4 h/day, 6 days a week; d-tetramethrin 3 h/day, 7 days a week); for non-influential amount in inhalation: 4-week test (d-phenothrin 4 h/day, 6 days a week; d-tetramethrin 3 h/day, 7 days a week), respiration 0.365 L/min/kg; for non-influential amount for oral exposure: 6-month test; for non-influential amount for percutaneous exposure: 21-day test
Excerpt: (6-month test) for oral exposure. […] (6-month test) for oral exposure.

[3] = Method: Finally, if it is judged to be safe at S8, S12, or S15, overall safety is evaluated. Here, the sum of respective reciprocals of the previously determined inhalation safety coefficient, percutaneous safety coefficient, and oral safety coefficient is determined, and the reciprocal of thus determined value is defined as an overall safety coefficient (S16).
inhalation safety coefficient=inhalation non-influential amount [mg/kg/day]/estimated exposure amount in inhalation [mg/kg/day]
percutaneous safety coefficient=percutaneous non-influential amount [mg/kg/day]/estimated percutaneous exposure amount [mg/kg/day]
oral safety coefficient=oral non-influential amount [mg/kg/day]/estimated oral exposure amount [mg/kg/day]

[4] = ADULT, respiration 0.220 L/min/kg
[5] = INFANT, respiration 0.235 L/min/kg

Row | SMILES | estimated PERCUTANEOUS exposure amount ([1]; ADULT, body weight 50 kg) | estimated exposure amount in INHALATION (WINDOW CLOSED) [1, 4] | estimated exposure amount in INHALATION (WINDOW OPEN) ([1]; ADULT) | estimated PERCUTANEOUS exposure amount ([1]; INFANT, body weight 10.2 kg) | estimated exposure amount in INHALATION (WINDOW CLOSED) [1, 5] | estimated ORAL exposure amount ([1]; INFANT) | estimated exposure amount in INHALATION (WINDOW OPEN) ([1]; INFANT) | non-influential in-air concentration [2] | non-influential amount in inhalation [2] | non-influential amount for oral exposure [2] | non-influential amount for percutaneous exposure [2] | also measured
1 | CC(C)=CC1[C@@H](C(=O)OCN2C(=O)C3=C(CCCC3)C2=O)C1(C)C (stereo in doubt) [d-tetramethrin] | 0.438 | 1.01 | 0.202 | 2.15 | 1.12 | 0.107 | 0.224 | 49 mg/m^3 | 3.22 mg/kg/day | 10.75 mg/kg/day | 1000 mg/kg/day | 
2 | CC(C)=CC1[C@@H](C(=O)OCc2cccc(Oc3ccccc3)c2)C1(C)C (stereo in doubt) [d-phenothrin] | 0.553 | 0.744 | 0.149 | 2.71 | 0.795 | 0.135 | 0.159 | 210 mg/m^3 | 18.4 mg/kg/day | 125 mg/kg/day | 1000 mg/kg/day | INHALATION (WINDOW CLOSED) safety coefficient ([3]; ADULT): 24,700; INHALATION (WINDOW OPEN) safety coefficient ([3]; ADULT): 124,000; PERCUTANEOUS safety coefficient ([3]; ADULT): 1,810,000; TOTAL (WINDOW CLOSED) safety coefficient ([3]; ADULT): 24,400; TOTAL (WINDOW OPEN) safety coefficient ([3]; ADULT): 116,000; INHALATION (WINDOW CLOSED) safety coefficient ([3]; INFANT): 23,100; INHALATION (WINDOW OPEN) safety coefficient ([3]; INFANT): 116,000; ORAL safety coefficient ([3]; INFANT): 923,000; PERCUTANEOUS safety coefficient ([3]; INFANT): 369,000; TOTAL (WINDOW CLOSED) safety coefficient ([3]; INFANT): 21,300; TOTAL (WINDOW OPEN) safety coefficient ([3]; INFANT): 80,400
